Data: patent US8754129B2, “Crystalline vorinostat form VI” (Generics [UK] Limited, priority 2008, dated 2014)

Test: Polymorphic stability on storage at 40° C./75% relative humidity
Type: physicochemical
Settings: kept at a temperature of 40° C.±2° C. and a relative humidity of 75%±5% for 6 months
Protocol: All XRPD analyses were carried out on a Bruker D8 Advance instrument, equipped with a copper radiation source with a wavelength of 1.54 Å.
All DSC analyses were carried out on a Perkin Elmer instrument, over a temperature range of 25° C. to 250° C., at a heating rate of 10° C./min, using a closed aluminium pan with a pinhole as crucible.

With O=C(CCCCCCC(=O)Nc1ccccc1)NO [crystalline form VI, N-hydroxy-N′-phenyl-octanediamide] the “polymorphic stability (conversion over time to other polymorphs)” value was “very stable polymorphically with no conversion over time to other polymorphs”.
